# Experimental data reported in publication PMC13401508 (Pharmacological research, 2026).
# Entries after “also recorded” stand apart in the source; their conditions may differ.
# Assays:
# NF-κB p65 = NF-κB p65 transcription factor activation assay; assay type: cell-based, human; settings: PC3-ML, ARCaP-M and C4–2B cells, 24 hrs, vs vehicle
# Protocol: NF-κB p65 transcription factor assay kits were obtained from Cayman Chemical, USA and performed following the manufacturer’s instructions.
# Fig. 2. […] NF-κB activity was measured by absorbance at 450 nm (n = 3 ± SD; * p < 0.05). […] C) PDGF-AA protein levels were determined in the three PC cell line-derived conditioned media by ELISA. In both panels: n = 3 ± SD; * p < 0.05.
# [1] = test system: HS5, RWPE-1, C4–2B, PC3-ML, ARCaP-M and RM1-BM cells; test: Colony formation (clonal) assay; assay type: cell-based, human and murine; settings: 50 μM, six repeated doses over a two-week period, tumor and non-tumor cells
# Protocol: 200 cells/well were seeded in triplicate in 6-well plates. […] The colonies were fixed with ice-cold Methanol and stained with 0.5% crystal violet and counted.
# (§1) Fig. 1. Primary characterization of IVMT-Rx-4. A) Chemical structure (upper panel) and synthesis scheme (lower panel). […] All proteins were extracted, and Western blotting was performed immediately after heating. Quantifications were obtained in the absence (control) or presence of IVMT-Rx-4 and values are presented as percentage of RT (room temperature) normalized for the experimental groups (control, IVMT-Rx-4). SOD (Superoxide dismutase) was used as an endogenous control. […] Colonies were stained with crystal violet and counted (n = 3 ± SD; ns: non-significant). […] Invaded cells were stained with crystal violet. Top panel: representative photograph of invaded cells under different experimental settings. Bottom panel: graphical representation of number of invaded cells/field for different cell lines (n = 3 ± SD; * p < 0.05).
# [2] = Particle size distribution (PSD); assay type: physicochemical; settings: wet method, water
# Protocol: About 15 mg of sample was pre-dispersed using 1 mL of water. After mixing completely, PSD was analyzed with the parameters in Table below.
# CYP3A4 = target: T1, CYP3A4 (Homo sapiens, UniProt P08684); test: Time dependent CYP inhibition (TDI); assay type: in vitro ADME; settings: human liver microsomes, with or without NADPH
# T1 construct: in the presence of human liver microsomes; from tissue; host or cells: human liver microsomes
# Protocol: Then, the specific CYP3A4 substrate was added, and aliquots were collected at various time points. Samples were then diluted with ultra-pure water and analyzed by LC-MS/MS. Area ratio and remaining Activity (%) were calculated as above and IC50 values was calculated using Excel XLfit 5.3.1.3.
# RM1-BM-Luc cells = test: Combination and survival study, RM1-BM-Luc syngeneic model; assay type: in vivo, C57BL/6 mice; settings: RM1-BM-Luc in C57BL/6, day 14, IVMT-Rx-4 30 mg/kg and/or Docetaxel 5 mg/kg 3X a week for two weeks
# Protocol: Both syngeneic (C57BL/6) and athymic nude mice were used for survival studies. Tumor cells (RM1-BM-Luc or PC3-ML-Luc) were injected intracardially in a cohort of 40 animals. […] In the combination groups, both regimens were administered 3X a week for two-weeks at the same dose as a single therapy. Animals were imaged periodically and maintained until euthanization was required.
# Fig. 5. […] A and B) RM1-BM-Luc (A) or PC3-ML-Luc (B) cells were implanted I.C. in C57BL/6 and athymic nude mice, respectively. […] BLI images were used to detect bone metastases (the percentage incidence of bone metastases in animals was calculated at a single time point, day 14). Values are presented at the bottom panel of the respective group (red, number of animals positive for metastasis and black, total number of experimental animals). C and D) Animals were kept until mandated euthanasia based on IACUC guidelines, considered as disease associated death. The Kaplan–Meier survival curves were generated using GraphPad in both models as described in (A) and (B), respectively. E and F) Log-rank test was performed and values between different experimental groups are presented.
# [3] = test system: PC3-ML, ARCaP-M, C4–2B, RM1-BM and TRAMP-C2 cells; test: Boyden chamber / Transwell Matrigel invasion assay; assay type: cell-based, human and murine; settings: 25 μM, 18 hrs, all five cell lines
# Protocol: Boyden chamber assays were performed using Corning® BioCoat® Matrigel® Invasion Chambers obtained from Corning Inc., USA. In brief, cells were seeded on the Matrigel-coated upper chamber and treated with IVMT-Rx-4. Invaded cells were fixed, stained and counted after 18 hrs. as previously described.
# as §1
# CXCL5 [4] = test: CXCL5 mRNA by qRT-PCR in HS5 cells; assay type: cell-based, human; settings: PDGF-AA activated HS5 cells, 24 hrs
# Protocol: Total RNA was extracted from cells using miRNeasy kits (Qiagen), and cDNA was prepared as described previously. Gene specific TaqMan Probes were obtained from Applied Bio system, Thermo-Fisher, USA. qRT-PCR was performed using an ABI Quant Studio real-time PCR.
# (§2) Fig. 3. […] CXCL5 mRNA expression was measured by qRT-PCR. […] Secreted CXCL5 in CM was measured by ELISA (n = 3 ± SD; * p < 0.05). […] CXCL5 mRNA expression was measured by qRT-PCR (n = 3 ± SD; * p < 0.05).
# [5] = Log D by shake flask (pH 7.4); assay type: physicochemical; settings: pH 7.4, octanol/phosphate buffer
# Protocol: Sodium Phosphate buffer pH 7.4 (10 mM) was used as the aqueous phase and octanol was used as the organic phase. […] The sealed plate was incubated at 25 °C with continuous agitation at 2000 rpm for 2 hrs. Samples were then separated by centrifugation, diluted 100-fold with a mixture of H20 and acetonitrile containing internal standard, and analyzed via LC-MS/MS. The Log D value was calculated using the following equation: […]
# PDGFRα = test: Western blot, PDGF-AA activated HS5 cells: PDGFRα; assay type: cell-based, human; settings: PDGF-AA 10 ng/ML, 25 μM, 24 hrs
# CXCL5 [6] = test: CXCL5 mRNA by qRT-PCR in murine BM-MSCs (WT and mda-9 KO); assay type: cell-based, C57BL/6 mice; settings: murine PDGF-AA 10 ng/ML, 25 μM, 24 hrs
# Protocol: Total bone marrow cells were collected from 6 to 8 weeks male MDA-9/Syntenin^WT (mda-9^WT) and global MDA-9/Syntenin knockout (mda-9^−/−) mice as previously described in Das et al.. mda-9^WT and mda-9^−/− bone marrow derived mesenchymal stromal cells were isolated using a previously outlined protocol.
# as §2
# [7] = Stability in liver microsomes with NADPH and UDPGA; assay type: in vitro ADME; settings: liver microsomes; all species (human, monkey, dog, rat, mouse), NADPH and UDPGA added; read-out: t½ in liver microsomes
# Protocol: Test samples were incubated at 37 °C, and Verapamil was used as a positive control. Samples were drawn from the incubation solution at different timepoints, centrifuged, then diluted with ultra-pure H20 and analyzed via LC-MS/MS. The natural logarithm of the remaining parent drug at each timepoint was plotted against incubation time, and the following equation was used to calculate the in vitro half-life:
# in vitro t1/2 = -(0.693/k), where k is the rate constant.
# T1 sequence (P08684 whole entry): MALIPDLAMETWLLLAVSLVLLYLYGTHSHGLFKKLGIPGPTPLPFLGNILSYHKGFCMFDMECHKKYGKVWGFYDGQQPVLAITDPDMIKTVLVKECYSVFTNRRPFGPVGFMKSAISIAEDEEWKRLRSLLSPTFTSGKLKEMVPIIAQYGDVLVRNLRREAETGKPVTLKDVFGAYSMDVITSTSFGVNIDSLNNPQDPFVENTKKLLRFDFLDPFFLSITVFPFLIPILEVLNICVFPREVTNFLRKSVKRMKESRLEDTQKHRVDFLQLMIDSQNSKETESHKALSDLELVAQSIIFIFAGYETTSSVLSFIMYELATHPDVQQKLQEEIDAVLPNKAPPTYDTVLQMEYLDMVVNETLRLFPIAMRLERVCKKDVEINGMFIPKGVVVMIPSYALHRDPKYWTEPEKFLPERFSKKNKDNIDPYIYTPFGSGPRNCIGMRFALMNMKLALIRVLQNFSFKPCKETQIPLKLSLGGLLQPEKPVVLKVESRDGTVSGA
smiles,measurement,setting,value
Cc1cc(NC(=O)CCc2nnc(-c3ccccc3)o2)c(C)cc1N [IVMT-Rx-4],NF-κB activity,NF-κB p65,decreased NF-κB activity
same,cell proliferation (colony formation),[1],did not inhibit cell proliferation
same,"Dv [90], average value",[2],58.6 μm
same,"Time-dependent inhibition (TDI), CYP3A4",CYP3A4,no time-dependent inhibition; also recorded: No TDI
same,"bone metastases, Incident/Total number tested",RM1-BM-Luc cells,3/8
same,cellular invasion,[3],effectively suppressed cellular invasion
same,CXCL5 mRNA level,CXCL5 [4],significantly decreased
same,logD at 2 h,[5],1.49
same,PDGFRα activation (phosphorylated PDGFRα),PDGFRα,downregulation of phosphorylated PDGFRα
same,CXCL5 mRNA expression,CXCL5 [6]; mBM-MSC WT,CXCL5 suppression occurred exclusively in mBM-MSC^WT
same,CXCL5 mRNA expression,CXCL5 [6]; mBM-MSC mda-9 KO,not in mBM-MSC^mda−9 KO cells
same,half-life,[7],> 3.5 h
